“Also recorded” adds a separate entry of the source. Like-named read-outs stand apart in the source and are kept apart here.
Tests used:
MMP-9 [1] = molecular target: T1, MMP-9 (Homo sapiens, UniProt P14780); test: MMP-9 inhibition assay (fluorogenic peptide substrate); type: biochemical; conditions: for remaining activity at 0.078016 µM: fragment concentration 0.078016 µM; for remaining activity at 0.39008 µM: fragment concentration 0.39008 µM; for remaining activity at 1.9504 µM: fragment concentration 1.9504 µM; for remaining activity at 9.752 µM: fragment concentration 9.752 µM; for inhibitory effect: in words; for IC50: mean ± SE, n.d: not detected, Fig. 5e prints no unit, µM, read-out: IC50
T1 construct: purchased Sino Biological 10327-HNAH
T1 sequence (P14780 107-707 limits assumed): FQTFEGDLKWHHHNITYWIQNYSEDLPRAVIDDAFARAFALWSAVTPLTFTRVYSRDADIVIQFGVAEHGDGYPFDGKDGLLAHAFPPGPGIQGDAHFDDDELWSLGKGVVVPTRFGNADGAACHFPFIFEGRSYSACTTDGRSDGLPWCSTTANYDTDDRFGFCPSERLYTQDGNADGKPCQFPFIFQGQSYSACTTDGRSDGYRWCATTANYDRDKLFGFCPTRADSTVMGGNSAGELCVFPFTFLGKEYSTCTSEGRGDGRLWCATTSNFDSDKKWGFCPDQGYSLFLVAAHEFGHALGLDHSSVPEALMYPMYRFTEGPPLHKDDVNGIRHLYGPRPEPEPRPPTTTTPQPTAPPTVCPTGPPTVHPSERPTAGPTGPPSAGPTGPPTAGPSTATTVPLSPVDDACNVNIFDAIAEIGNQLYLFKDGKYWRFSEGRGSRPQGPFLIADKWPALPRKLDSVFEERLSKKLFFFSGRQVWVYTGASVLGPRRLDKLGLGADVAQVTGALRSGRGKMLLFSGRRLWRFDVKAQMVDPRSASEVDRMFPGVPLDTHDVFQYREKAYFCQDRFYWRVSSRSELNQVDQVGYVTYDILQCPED
Method in brief: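 Hydrolysis of DNP-Pro-Leu-Gly-Met-Trp-Ser-Arg (25 μM final) was tracked kinetically at em 360 nm over 30 min. Enzymes, APMA-activated and at 10 nM (MMP-9) or 6.5 nM (MMP-2) final, sat 30 min at RT with inhibitor in pH 7.5 Tris buffer with CaCl2 and Brij 35 first. Logistic fitting of Vmax against concentration gave IC50, in triplicate.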

MMP-9 [2] = molecular target: T1, MMP-9; test: Dynamic dual-pharmacophore DEL selection against MMP-9, NGS decoding; type: binding; conditions: MMP9 selection; for MMP9 3L Enrichment Fold: 3L library (Supplementary fig 13); for MMP9 3L Count: 3L library; for MMP9 3L Count / MMP9 5L Count: sequence count (Supplementary fig 13); for MMP9 5L Enrichment Fold: 5L library (Supplementary fig 13); for MMP9 5L Count: 5L library
Text: Matrix metalloproteinases (MMPs) are zinc-dependent endopeptidases capable of degrading and remodeling extracellular matrix components[46],[47]. They are attractive therapeutic targets as high expression levels were detected in various diseases, such as inflammatory diseases, and at different stages of cancers, including metastasis, invasion, and angiogenesis[47]–[53]. As shown in Supplementary Fig. 3c, we performed selections against the two gelatinases (human MMP-2 and human MMP-9) to identify binding fragments for later design and synthesis of small molecule inhibitors. After selection, the three sub-libraries were decoded, and the enrichment was calculated by dividing the post-selection fraction (count/total counts) by the pre-selection fraction (Fig. 4a and Supplementary Fig. 13).
4 µg of MMP-2/MMP-9 was dissolved in 100 µl of selection buffer containing 25 mM Tris-base, 10 mM CaCl2, 150 mM NaCl, 0.05% Tween 20, pH 7.5. 10 µl of 4-Aminophenylmercuric acetate (APMA) (100 mM) solution was added to the protein solution and incubated at 37 °C for 1 h. After activation, the solution was added on top of 40 µl pre-washed Ni-NTA resin and incubated for 30 min on a rotary shaker. The supernatant was discarded, and the resin was washed three times with the selection buffer.
For each independent selection, three sub-libraries were mixed in the selection buffer with a final concentration of 40 nM of each sub-library in 100 µl. The mixture was heat denatured at 90 °C for 1 min and slowly cooled down to allow the formation of the trio-pharmacophore library. The dynamic dual-pharmacophore DEL was provided by DyNAbind GmbH (Merck, DYNA001).
The assembled library was incubated with the protein-bound solid support for 2 h at RT on a rotary shaker. In parallel, selection on bare solid support served as the negative control to exclude promiscuous binders on the resin. After panning, the supernatant was discarded, and the resin was washed three times with 1 ml selection buffer. Finally, 100 µl of 50 mM Tris buffer, pH 7.4 was added to resuspend the resin and the resin was incubated at 95 °C for 5 min to denature the protein, release, and collect the bound library members.
The eluted library members were subjected to sample preparation for NGS. NGS preparation was achieved by two-step PCR. First, the individual selection was indexed using primers containing unique sequences corresponding to each selection. The amplified product was purified from 2% agarose gel. Second, the purified DNA from all selections were pooled in equal amount and subjected to the 2nd PCR step to attach sequences compatible with the NGS flow cell and the sequencing primers. NGS was performed by Novogene UK with Novaseq 6000. Raw data files (fastq files) obtained were decoded using a custom python script and excel. The sequence reads corresponding to each sample was retrieved by searching for the correct index unique to each selection. Then, the code region was extracted from each sequence and assigned to the corresponding identity. The count of each code in each selection sample was obtained by looping through the total reads and counting the occurrence of each code. The enrichment fold of each compound was calculated by first, dividing the count by the total count to get the abundance, second, the abundance after the selection was divided by the abundance of pre-selection to reflect the distribution change of the compound. Next, the enrichment fold was plotted against the count for each member of the library to give the scatter plots as in Fig. 4.

[3] = Figure 5b, read-out: Normalized activity (Mean)
[4] = Figure 5b, fragment concentration 48.76 µM, read-out: Normalized activity (Mean)
[5] = Figure 5b, fragment concentration 243.8 µM, read-out: Normalized activity (Mean)
[6] = Figure 5b, fragment concentration 1219 µM, read-out: Normalized activity (Mean)
[7] = MMP-9, concentration 0.08 µM, read-out: Mean (dose-response, Supplementary fig 17)
[8] = MMP-9, concentration 0.39 µM, read-out: Mean (dose-response, Supplementary fig 17)
[9] = MMP-9, concentration 1.95 µM, read-out: Mean (dose-response, Supplementary fig 17)
[10] = MMP-9, concentration 9.75 µM, read-out: Mean (dose-response, Supplementary fig 17)
[11] = MMP-9, concentration 48.76 µM, read-out: Mean (dose-response, Supplementary fig 17)
[12] = MMP-9, concentration 243.80 µM, read-out: Mean (dose-response, Supplementary fig 17)
[13] = MMP-9, concentration 1219.00 µM, read-out: Mean (dose-response, Supplementary fig 17)
[14] = MMP-9, concentration 0.08 µM, read-out: Mean (MMP-9 dose-response, Supplementary fig 15)
[15] = MMP-9, concentration 0.39 µM, read-out: Mean (MMP-9 dose-response, Supplementary fig 15)
[16] = MMP-9, concentration 1.95 µM, read-out: Mean (MMP-9 dose-response, Supplementary fig 15)
[17] = MMP-9, concentration 9.75 µM, read-out: Mean (MMP-9 dose-response, Supplementary fig 15)
[18] = MMP-9, concentration 48.76 µM, read-out: Mean (MMP-9 dose-response, Supplementary fig 15)
[19] = MMP-9, concentration 243.80 µM, read-out: Mean (MMP-9 dose-response, Supplementary fig 15)
[20] = MMP-9, concentration 1219.00 µM, read-out: Mean (MMP-9 dose-response, Supplementary fig 15)

SMILES | remaining activity at 0.078016 µM (MMP-9 [1]; [3]) [%] | remaining activity at 0.39008 µM (MMP-9 [1]; [3]) [%] | remaining activity at 1.9504 µM (MMP-9 [1]; [3]) [%] | remaining activity at 9.752 µM (MMP-9 [1]; [3]) [%] | remaining activity at 48.76 µM (MMP-9 [1]; [4]) [%] | remaining activity at 243.8 µM (MMP-9 [1]; [5]) [%] | remaining activity at 1219 µM (MMP-9 [1]; [6]) [%] | remaining activity at 0.08 µM (MMP-9 [1]; [7]) [%] | remaining activity at 0.39 µM (MMP-9 [1]; [8]) [%] | remaining activity at 1.95 µM (MMP-9 [1]; [9]) [%] | remaining activity at 9.75 µM (MMP-9 [1]; [10]) [%] | remaining activity at 48.76 µM (MMP-9 [1]; [11]) [%] | remaining activity at 243.8 µM (MMP-9 [1]; [12]) [%] | remaining activity at 1219 µM (MMP-9 [1]; [13]) [%] | inhibitory effect (MMP-9 [1]) | Enrichment Fold (MMP-9 [2]; 3L sub-library) | Enrichment Fold (MMP-9 [2]; 5L sub-library) | IC50 (MMP-9 [1]) [µM] | remaining activity at 0.08 µM (MMP-9 [1]; [14]) [%] | remaining activity at 0.39 µM (MMP-9 [1]; [15]) [%] | also measured
O=C(O)CNC(=O)NC12CC3CC(CC(C3)C1)C2 [Compound 66] | 96.6 | 92.7 | 92.2 | 92.5 | 86.3 | 85 | 74.6 | 96.6 | 92.7 | 92.2 | 92.5 | 86.3 | 85 | 74.6 | No inhibitory effects could be measured; also recorded: did not exhibit meaningful activity | 0.3958 | 1.238 |  |  |  | Count (MMP-9 [2]; 3L sub-library, NGS sequence count): 87; Count (MMP-9 [2]; 5L sub-library, NGS sequence count): 2487
O=C(O)Cn1cnc2c(oc3ccccc32)c1=O [Compound 182] |  |  |  |  |  |  |  |  |  |  |  |  |  |  |  | 0.7692 | 1.565 | 48.1 |  |  | remaining activity at 0.062464 µM (MMP-9 [1]; Figure 5b, fragment concentration 0.062464 µM, read-out: Normalized activity (Mean)): 93.2%; remaining activity at 0.31232 µM (MMP-9 [1]; Figure 5b, fragment concentration 0.31232 µM, read-out: Normalized activity (Mean)): 98.5%; remaining activity at 1.5616 µM (MMP-9 [1]; Figure 5b, fragment concentration 1.5616 µM, read-out: Normalized activity (Mean)): 93.8%; remaining activity at 7.808 µM (MMP-9 [1]; Figure 5b, fragment concentration 7.808 µM, read-out: Normalized activity (Mean)): 101%; remaining activity at 39.04 µM (MMP-9 [1]; Figure 5b, fragment concentration 39.04 µM, read-out: Normalized activity (Mean)): 52.9%; remaining activity at 195.2 µM (MMP-9 [1]; Figure 5b, fragment concentration 195.2 µM, read-out: Normalized activity (Mean)): 20%; remaining activity at 976 µM (MMP-9 [1]; Figure 5b, fragment concentration 976 µM, read-out: Normalized activity (Mean)): 0%; remaining activity at 0.06 µM (MMP-9 [1]; MMP-9, concentration 0.06 µM, read-out: Mean (MMP-9, Supplementary fig 16)): 93.2%; remaining activity at 0.31 µM (MMP-9 [1]; MMP-9, concentration 0.31 µM, read-out: Mean (MMP-9, Supplementary fig 16)): 98.5%; remaining activity at 1.56 µM (MMP-9 [1]; MMP-9, concentration 1.56 µM, read-out: Mean (MMP-9, Supplementary fig 16)): 93.8%; remaining activity at 7.81 µM (MMP-9 [1]; MMP-9, concentration 7.81 µM, read-out: Mean (MMP-9, Supplementary fig 16)): 101%; remaining activity at 39.04 µM (MMP-9 [1]; MMP-9, concentration 39.04 µM, read-out: Mean (MMP-9, Supplementary fig 16)): 52.9%; remaining activity at 195.2 µM (MMP-9 [1]; MMP-9, concentration 195.20 µM, read-out: Mean (MMP-9, Supplementary fig 16)): 21%; remaining activity at 976 µM (MMP-9 [1]; MMP-9, concentration 976.00 µM, read-out: Mean (MMP-9, Supplementary fig 16)): 0%; Count (MMP-9 [2]; 3L sub-library, sequence count per compound ID): 816; Count (MMP-9 [2]; 5L sub-library, sequence count per compound ID): 4821
Cc1cc(=O)[nH]c(-n2nc(C)c(CCC(=O)O)c2C)n1 [Compound 693] | 99.9 | 97 | 89.6 | 87.1 | 91 | 37.1 | 6.67 |  |  |  |  |  |  |  | high µM range |  |  | 206 ± 25.4 | 99.9 | 97 | remaining activity at 1.95 µM (MMP-9 [1]; [16]): 89.5%; remaining activity at 9.75 µM (MMP-9 [1]; [17]): 87.1%; remaining activity at 48.76 µM (MMP-9 [1]; [18]): 91%; remaining activity at 243.8 µM (MMP-9 [1]; [19]): 37.1%; remaining activity at 1219 µM (MMP-9 [1]; [20]): 6.67%; MMP9 3L Enrichment Fold (MMP-9 [2]): 1.167; MMP9 3L Count (MMP-9 [2]): 1032; MMP9 5L Enrichment Fold (MMP-9 [2]): 4.572; MMP9 5L Count (MMP-9 [2]): 8985
NCc1c[nH]nn1 [Compound 787] | 99.6 | 103 | 88 | 89.2 | 88.6 | 78.5 | 32.5 | 99.6 | 103 | 88 | 89.2 | 88.6 | 78.5 | 32.5 | high µM |  |  | 784 ± 115 | 99.6 | 103 | remaining activity at 0.08 µM (MMP-9 [1]; MMP-9, concentration 0.08 µM, read-out: Mean (MMP-9, Supplementary fig 16)): 99.6%; remaining activity at 0.39 µM (MMP-9 [1]; MMP-9, concentration 0.39 µM, read-out: Mean (MMP-9, Supplementary fig 16)): 103%; remaining activity at 1.95 µM (MMP-9 [1]; MMP-9, concentration 1.95 µM, read-out: Mean (MMP-9, Supplementary fig 16)): 88%; remaining activity at 9.75 µM (MMP-9 [1]; MMP-9, concentration 9.75 µM, read-out: Mean (MMP-9, Supplementary fig 16)): 89.2%; remaining activity at 48.76 µM (MMP-9 [1]; MMP-9, concentration 48.76 µM, read-out: Mean (MMP-9, Supplementary fig 16)): 88.6%; remaining activity at 243.8 µM (MMP-9 [1]; MMP-9, concentration 243.80 µM, read-out: Mean (MMP-9, Supplementary fig 16)): 78.5%; remaining activity at 1219 µM (MMP-9 [1]; MMP-9, concentration 1219.00 µM, read-out: Mean (MMP-9, Supplementary fig 16)): 32.5%; remaining activity at 1.95 µM (MMP-9 [1]; [16]): 88%; remaining activity at 9.75 µM (MMP-9 [1]; [17]): 89.2%; remaining activity at 48.76 µM (MMP-9 [1]; [18]): 88.6%; remaining activity at 243.8 µM (MMP-9 [1]; [19]): 78.5%; remaining activity at 1219 µM (MMP-9 [1]; [20]): 32.5%; MMP9 3L Enrichment Fold (MMP-9 [2]): 3.649; MMP9 3L Count (MMP-9 [2]): 3684; MMP9 5L Enrichment Fold (MMP-9 [2]): 0.7364; MMP9 5L Count (MMP-9 [2]): 628
